Patent publication US20240101570A1 (AMGEN INC., priority 2020, published 2024)

How the values were obtained:
HCT116 WT cells = test: HCT116 WT cell proliferation / viability (CellTiter-Glo, 6 days); format: cell-based; settings: Homo sapiens, HCT-116, 144 h, HCT116 WT cells, 6 days, CellTiter-Glo; read-out: HCT-116 WT IC50
Protocol: (§1) HCT116 MTAP null and WT cells were seeded in 96-well tissue culture plates in RPMI 1640 media+10% fetal bovine serum. Plates were incubated overnight at 37° C. and 5% CO2. Cells were then treated with an 8- or 9-point serial dilution of compound, using a top concentration of 1, or 10 μM, 1:3 serial dilution steps and, a DMSO-only control. Cells were incubated in the presence of drug for 6 days. Effects on cell viability were measured with the CellTiter-Glo® Luminescent Cell Viability Assay (Promega) per manufacturer's recommendation. Assay plates were read on an EnVision™ Multilabel Reader using the Ultra-Sensitive luminescence module. IC50 values were calculated with GraphPad Prism v 5.01 using symmetrical sigmoidal dose-response least squares fit with Hill slope fixed to −1 and top constrain to 100% or GeneData Screener using a 4-parameter logistic model to fit dose response curves.
(§2) Alternatively, compounds could be assayed with a 384 well plate format:
(§3) Compounds were pre-spotted into 384 well plates with a 22-point serial dilution of compound, using a top concentration of 10 or 50 μM, 1:2 serial dilution steps and, a DMSO-only control. HCT116 MTAP null and WT cells were then seeded as above and after 6 days effects on cell viability were measured with the CellTiter-Glo® Luminescent Cell Viability Assay (Promega). Assay plates were read as above and IC50 values were calculated with GeneData Screener using a 4-parameter logistic model to fit dose response curves. The reported IC50 represents the value where the curve transits 50% of control.

HCT116 MTAP null cells = test: HCT116 MTAP null cell proliferation / viability (CellTiter-Glo, 6 days); format: cell-based; settings: HCT116-MTAP null, 144 h, HCT116 MTAP null cells, 6 days, CellTiter-Glo; read-out: HCT-116 MTAP null IC50
Protocol: as §1, §2, §3

IC50 (HCT116 WT cells) | IC50 (HCT116 MTAP null cells) | Compound
1230 nM | 42 nM | CC(c1ncccn1)N(Cc1ccc(C2COC2)cc1)C(=O)c1ccc2nc(N)c3c(c2c1)COC3 (racemic) [Example 449, 4-amino-N-(4-(3-oxetanyl)benzyl)-N-((1R)-1-(2-pyrimidinyl)ethyl)-1,3-dihydrofuro[3,4-c]quinoline-8-carboxamide and 4-amino-N-(4-(3-oxetanyl)benzyl)-N-((1S)-1-(2-pyrimidinyl)ethyl)-1,3-dihydrofuro[3,4-c]quinoline-8-carboxamide]
> 10000 nM | 809 nM | CC(CF)N(Cc1ccc(C#N)cn1)C(=O)c1ccc2nc(N)c3c(c2c1)COC3 (racemic) [Example 473, 4-amino-N-((5-cyano-2-pyridinyl)methyl)-N-((2R)-1-fluoro-2-propanyl)-1,3-dihydrofuro[3,4-c]quinoline-8-carboxamide and 4-amino-N-((5-cyano-2-pyridinyl)methyl)-N-((2S)-1-fluoro-2-propanyl)-1,3-dihydrofuro[3,4-c]quinoline-8-carboxamide]
419 nM | 18 nM | CC(c1ncccn1)N(Cc1ccc(C#N)cn1)C(=O)c1ccc2nc(N)c3c(c2c1)COC3 (racemic) [Example 616, 4-amino-N-((5-cyano-2-pyridinyl)methyl)-N-((1R)-1-(2-pyrimidinyl)ethyl)-1,3-dihydrofuro[3,4-c]quinoline-8-carboxamide and 4-amino-N-((5-cyano-2-pyridinyl)methyl)-N-((1S)-1-(2-pyrimidinyl)ethyl)-1,3-dihydrofuro[3,4-c]quinoline-8-carboxamide]
264 nM | 33 nM | CC(c1ncccn1)N(Cc1ccc(C(F)(F)F)cn1)C(=O)c1ccc2nc(N)c3c(cnn3C)c2c1 (racemic) [Example 618, 4-amino-3-methyl-N-((1R)-1-(2-pyrimidinyl)ethyl)-N-((5-(trifluoromethyl)-2-pyridinyl)methyl)-3H-pyrazolo[3,4-c]quinoline-8-carboxamide and 4-amino-3-methyl-N-((1S)-1-(2-pyrimidinyl)ethyl)-N-((5-(trifluoromethyl)-2-pyridinyl)methyl)-3H-pyrazolo[3,4-c]quinoline-8-carboxamide]
1060 nM | 61 nM | Cc1noc2c1c(N)nc1ccc(C(=O)N(Cc3ccc(C(F)(F)F)cn3)C(C)c3ncccn3)cc12 (racemic) [Example 619, 4-amino-3-methyl-N-((1R)-1-(2-pyrimidinyl)ethyl)-N-((5-(trifluoromethyl)-2-pyridinyl)methyl)[1,2]oxazolo[4,5-c]quinoline-8-carboxamide and 4-amino-3-methyl-N-((1S)-1-(2-pyrimidinyl)ethyl)-N-((5-(trifluoromethyl)-2-pyridinyl)methyl)[1,2]oxazolo[4,5-c]quinoline-8-carboxamide]
110 nM | 13 nM | CC(c1ncccn1)N(Cc1ccc(C(F)(F)F)cn1)C(=O)c1ccc2nc(N)c3c(c2c1)COC3 (racemic) [Example 640, 4-amino-N-((1R)-1-(2-pyrimidinyl)ethyl)-N-((5-(trifluoromethyl)-2-pyridinyl)methyl)-1,3-dihydrofuro[3,4-c]quinoline-8-carboxamide and 4-amino-N-((1S)-1-(2-pyrimidinyl)ethyl)-N-((5-(trifluoromethyl)-2-pyridinyl)methyl)-1,3-dihydrofuro[3,4-c]quinoline-8-carboxamide]

Further lines, the compound ahead of its results:

Compound | IC50 (HCT116 WT cells) | IC50 (HCT116 MTAP null cells)
CC1OCc2c1c(N)nc1cnc(C(=O)N(C)Cc3ccc(Br)cn3)cc21 (racemic) [Example 433, (3R)-4-amino-N-((5-bromo-2-pyridinyl)methyl)-N,3-dimethyl-1,3-dihydrofuro[3,4-c][1,7]naphthyridine-8-carboxamide and (3S)-4-amino-N-((5-bromo-2-pyridinyl)methyl)-N,3-dimethyl-1,3-dihydrofuro[3,4-c][1,7]naphthyridine-8-carboxamide] | 21200 nM | 344 nM
N#Cc1ccc(CN(C(=O)c2ccc3nc(N)c4c(c3c2)COC4)C2CCCn3ncnc32)nc1 (racemic) [Example 448, 4-amino-N-((5-cyano-2-pyridinyl)methyl)-N-((8R)-5,6,7,8-tetrahydro[1,2,4]triazolo[1,5-a]pyridin-8-yl)-1,3-dihydrofuro[3,4-c]quinoline-8-carboxamide and 4-amino-N-((5-cyano-2-pyridinyl)methyl)-N-((8S)-5,6,7,8-tetrahydro[1,2,4]triazolo[1,5-a]pyridin-8-yl)-1,3-dihydrofuro[3,4-c]quinoline-8-carboxamide] | 2100 nM | 124 nM
CO[C@@H]1COCC[C@H]1N(Cc1ccc(C(F)(F)F)cn1)C(=O)c1ccc2nc(N)c3c(c2c1)COC3 (racemic) [Example 459, 4-amino-N-((3R,4S)-3-methoxytetrahydro-2H-pyran-4-yl)-N-((5-(trifluoromethyl)-2-pyridinyl)methyl)-1,3-dihydrofuro[3,4-c]quinoline-8-carboxamide and 4-amino-N-((3S,4R)-3-methoxytetrahydro-2H-pyran-4-yl)-N-((5-(trifluoromethyl)-2-pyridinyl)methyl)-1,3-dihydrofuro[3,4-c]quinoline-8-carboxamide] | 305 nM | 29 nM
CO[C@@H]1CCOC[C@H]1N(Cc1ccc(C(F)(F)F)cn1)C(=O)c1ccc2nc(N)c3c(c2c1)COC3 (racemic) [Example 460, 4-amino-N-((3R,4R)-4-methoxytetrahydro-2H-pyran-3-yl)-N-((5-(trifluoromethyl)-2-pyridinyl)methyl)-1,3-dihydrofuro[3,4-c]quinoline-8-carboxamide and 4-amino-N-((3S,4S)-4-methoxytetrahydro-2H-pyran-3-yl)-N-((5-(trifluoromethyl)-2-pyridinyl)methyl)-1,3-dihydrofuro[3,4-c]quinoline-8-carboxamide] | 287 nM | 19 nM
COCC(C)N(Cc1ccc(C(F)(F)F)nn1)C(=O)c1cc2c3c(c(N)nc2cc1Cl)COC3 (racemic) [Example 487, 4-amino-7-chloro-N-((2R)-1-methoxy-2-propanyl)-N-((6-(trifluoromethyl)-3-pyridazinyl)methyl)-1,3-dihydrofuro[3,4-c]quinoline-8-carboxamide and 4-amino-7-chloro-N-((2S)-1-methoxy-2-propanyl)-N-((6-(trifluoromethyl)-3-pyridazinyl)methyl)-1,3-dihydrofuro[3,4-c]quinoline-8-carboxamide] | 1370 nM | 88 nM
COCC(C)N(Cc1ccc(C(F)(F)F)nn1)C(=O)c1cc2c3c(c(N)nc2cc1F)COC3 (racemic) [Example 488, 4-amino-7-fluoro-N-((2R)-1-methoxy-2-propanyl)-N-((6-(trifluoromethyl)-3-pyridazinyl)methyl)-1,3-dihydrofuro[3,4-c]quinoline-8-carboxamide and 4-amino-7-fluoro-N-((2S)-1-methoxy-2-propanyl)-N-((6-(trifluoromethyl)-3-pyridazinyl)methyl)-1,3-dihydrofuro[3,4-c]quinoline-8-carboxamide] | 696 nM | 49 nM
COCC(C)N(Cc1ccc(C(F)(F)F)cn1)C(=O)c1ccc2nc(N)c3c(C)noc3c2c1 (racemic) [Example 634, 4-amino-N-((2R)-1-methoxy-2-propanyl)-3-methyl-N-((5-(trifluoromethyl)-2-pyridinyl)methyl)[1,2]oxazolo[4,5-c]quinoline-8-carboxamide and 4-amino-N-((2S)-1-methoxy-2-propanyl)-3-methyl-N-((5-(trifluoromethyl)-2-pyridinyl)methyl)[1,2]oxazolo[4,5-c]quinoline-8-carboxamide] | 953 nM | 34 nM
COCC(C1CC1)N(Cc1ccc(Br)nn1)C(=O)c1ccc2nc(N)c3sccc3c2c1 (racemic) [Example 639, 4-amino-N-((6-bromo-3-pyridazinyl)methyl)-N-((1R)-1-cyclopropyl-2-methoxyethyl)thieno[2,3-c]quinoline-8-carboxamide and 4-amino-N-((6-bromo-3-pyridazinyl)methyl)-N-((1S)-1-cyclopropyl-2-methoxyethyl)thieno[2,3-c]quinoline-8-carboxamide] | 3150 nM | 238 nM
CC(CF)N(Cc1ccc(C#N)cn1)C(=O)c1cc2c3c(c(N)nc2cn1)COC3 (racemic) [Example 687, 4-amino-N-((5-cyano-2-pyridinyl)methyl)-N-((2R)-1-fluoro-2-propanyl)-1,3-dihydrofuro[3,4-c][1,7]naphthyridine-8-carboxamide and 4-amino-N-((5-cyano-2-pyridinyl)methyl)-N-((2S)-1-fluoro-2-propanyl)-1,3-dihydrofuro[3,4-c][1,7]naphthyridine-8-carboxamide] | > 10000 nM | > 10000 nM
